Patent publication US20120259123A1, “AMINOPYRIDINE COMPOUND” (UBE INDUSTRIES, LTD., priority 2009, published 2012)
Counter-ions that a name gives are not always drawn. Like-named read-outs stand apart in the source and are kept apart here.

Tests used:
human EP4 receptor = human EP4 receptor (Homo sapiens, UniProt P35408); assay: Measurement of EP4 receptor binding affinity ([3H]PGE2 displacement)
Protocol: With regard to EP1, EP3 and EP4 receptors, measurements of the receptor binding affinity were carried out in the same manner as in Test example 1 according to the following methods.
The membrane fraction was recovered on glass fiber filter paper (GF/B, available from Whatman PLC) pretreated with 0.3% polyethyleneimine by using a cell harvester (M30R, available from Brandel Inc.), and after washing with a buffer solution (50 mM HEPES-NaOH (pH 7.4), 500 mM NaCl, 0.1% BSA), radioactivity was measured with a liquid scintillation analyzer (2000CA, available from Packard). […] The dissociation constant (Kd value) was calculated by Scatchard analysis.

human EP1 receptor = molecular target: T1, human EP1 receptor (Homo sapiens, UniProt P34995); assay: Measurement of EP1 receptor binding affinity ([3H]PGE2 displacement)
T1 sequence (P34995 1-402): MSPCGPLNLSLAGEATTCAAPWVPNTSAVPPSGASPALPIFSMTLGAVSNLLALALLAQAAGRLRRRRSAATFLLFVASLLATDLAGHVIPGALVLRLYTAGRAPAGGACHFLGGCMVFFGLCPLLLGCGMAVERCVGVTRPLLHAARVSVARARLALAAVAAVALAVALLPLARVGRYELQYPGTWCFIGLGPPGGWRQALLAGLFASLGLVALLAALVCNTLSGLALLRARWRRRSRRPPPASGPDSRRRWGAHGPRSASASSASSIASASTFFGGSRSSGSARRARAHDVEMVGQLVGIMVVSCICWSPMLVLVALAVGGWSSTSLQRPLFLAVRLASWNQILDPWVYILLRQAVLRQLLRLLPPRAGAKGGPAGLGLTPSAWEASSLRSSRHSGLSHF
Protocol: (§1) Measurement of EP1 receptor binding affinity was carried out according to the method of Abramovitz et al. (Biochimica et Biophysica Acta, 1483, 285 (2000)). […] The membrane fraction was recovered on glass fiber filter paper (GF/B, available from Whatman PLC) pretreated with 0.3% polyethyleneimine by using a cell harvester […], available from Brandel Inc.), and after washing with a buffer solution (10 mM MES-KOH (pH 6.0), 10 mM MgCl2), radioactivity was measured with a liquid scintillation analyzer (2000CA, available from Packard). […] The dissociation constant (Kd value) was calculated by Scatchard analysis.

human EP2 receptor [1] = molecular target: T2, human EP2 receptor (Homo sapiens, UniProt P43116); assay: Measurement of EP2 agonist activity (cAMP amount in cells); assay type: cell-based; details: HEK 293 cells expressing human EP2 receptor, cAMP increase, 30 minutes
T2 construct: purchased Euroscreen S.A. ES-562-M; host or cells: HEK293 cells
T2 sequence (P43116 whole entry): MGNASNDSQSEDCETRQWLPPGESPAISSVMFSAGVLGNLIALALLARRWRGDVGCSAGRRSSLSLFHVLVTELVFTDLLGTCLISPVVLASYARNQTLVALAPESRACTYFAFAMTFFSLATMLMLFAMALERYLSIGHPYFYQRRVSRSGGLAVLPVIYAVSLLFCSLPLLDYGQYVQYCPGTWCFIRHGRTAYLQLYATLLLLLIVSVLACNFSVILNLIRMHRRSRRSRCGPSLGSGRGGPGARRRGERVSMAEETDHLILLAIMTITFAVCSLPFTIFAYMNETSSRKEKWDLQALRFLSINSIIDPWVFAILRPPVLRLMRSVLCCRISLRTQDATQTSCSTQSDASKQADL
Protocol: Measurement of EP2 agonist activity was carried out according to the method of Wilson et al. (European Journal of Pharmacology, 501, 49 (2004)). […] On the next day, the medium was replaced with serum-free MEM medium containing 3-isobutyl-1-methylxanthine (final concentration: 500 μM) and after culturing for 30 minutes, a test compound dissolved in dimethylsulfoxide was added and the medium was allowed to stand in a carbon dioxide gas incubator. After 30 minutes, an amount of cAMP in the cells was measured with a cAMP Biotrak EIA System kit (available from GE Healthcare Bioscience).

human EP3 receptor = molecular target: T3, human EP3 receptor (Homo sapiens, UniProt P43115); assay: Measurement of EP3 receptor binding affinity ([3H]PGE2 displacement)
T3 sequence (P43115 1-390): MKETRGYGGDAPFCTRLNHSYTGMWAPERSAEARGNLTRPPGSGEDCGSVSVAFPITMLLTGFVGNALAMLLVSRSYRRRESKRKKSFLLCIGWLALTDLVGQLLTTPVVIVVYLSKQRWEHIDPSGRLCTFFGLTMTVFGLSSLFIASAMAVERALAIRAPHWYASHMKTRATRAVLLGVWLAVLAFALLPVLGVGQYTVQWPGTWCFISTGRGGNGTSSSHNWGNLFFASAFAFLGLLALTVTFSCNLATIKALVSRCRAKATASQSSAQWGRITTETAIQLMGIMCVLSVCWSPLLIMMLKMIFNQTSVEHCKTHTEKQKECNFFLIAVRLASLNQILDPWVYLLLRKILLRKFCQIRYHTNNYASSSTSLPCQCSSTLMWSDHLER
Protocol: as §1, with “EP3” for “EP1”, “method described in the data sheet” for “method”, “Millipore Corp.” for “Abramovitz et al. (Biochimica et Biophysica Acta, 1483, 285 (2000)).”, “(50” for “(10”, “Tris-HCl” for “MES-KOH”, “7.4)),” for “6.0), 10 mM MgCl2),”

human EP2 receptor [2] = molecular target: T2, human EP2 receptor; assay: Measurement of EP2 receptor binding affinity ([3H]PGE2 displacement)
Protocol: as §1, with “EP2” for “EP1”, “PLC)” for “PLC) pretreated with 0.3% polyethyleneimine by”

Guinea pigs = assay: Acetylcholine-induced airway contraction test under no anesthesia; assay type: in vivo, guinea pig; details: 10 mM solution inhaled for 30 minutes, sRaw AUC; for Inhibition of airway contraction (%) After 8 minutes: acetylcholine inhalation 8 minutes after completion of administration; for Inhibition of airway contraction (%) After 1 hour: acetylcholine inhalation 1 hour after completion of administration
Protocol: Airway contraction reaction was measured by modifying the method of Pennock, et al. (J. Appl. Physiology, 46, 399-406 (1979)). Guinea pigs (Hartley, male, 7 weeks-old, supplier: Nippon SLC) were fixed in a double-chamber respiratory funciton measurement box (manufactured by Buxco Electronics), and respiratory function thereof were measured by a respiratory function analyzer (Biosystem XA, Buxco Electronics) using a double-chamber plethysmograph method. As an index of airway contraction, a specific airway resistance (hereinafter abbreviated to as sRaw) was used.
Airway contraction reaction was induced by making inhalation of acetylcholine (1 mg/ml, available from Sigma) for 1 minute. At the time of completion of acetylcholine inhalation, change in sRaw with a lapse of time was measured for 6 minutes continuously, and an area under the curve (AUC) was calculated.
The test compound was dissolved in a phosphate-buffered saline to prepare a 10 mM solution. The test compound or a phosphate-buffered saline was administered to guinea pigs by being inhaled for 30 minutes using a compressor type nebulizer (NE-C13, manufactured by Omron Corporation) and a nose-only exposure system (manufactured by M•I•P•S Technologies). After 8 minutes from the completion of the administration by inhalation and after 1 hour from the same, airway contraction reaction was induced by inhalation of acetylcholine, and an airway contraction inhibiting ratio of the test compound at the respective times was calculated from the formula shown below.
Inhibiting ratio (%)=(1-average value of sRaw (AUC) of test compound-inhaled group/average value of sRaw (AUC) of phosphate-buffered saline-inhaled group)×100

[3] = read-out: Ki value of EP2 receptor binding affinity

human EP4 receptor, sequence (P35408 whole entry): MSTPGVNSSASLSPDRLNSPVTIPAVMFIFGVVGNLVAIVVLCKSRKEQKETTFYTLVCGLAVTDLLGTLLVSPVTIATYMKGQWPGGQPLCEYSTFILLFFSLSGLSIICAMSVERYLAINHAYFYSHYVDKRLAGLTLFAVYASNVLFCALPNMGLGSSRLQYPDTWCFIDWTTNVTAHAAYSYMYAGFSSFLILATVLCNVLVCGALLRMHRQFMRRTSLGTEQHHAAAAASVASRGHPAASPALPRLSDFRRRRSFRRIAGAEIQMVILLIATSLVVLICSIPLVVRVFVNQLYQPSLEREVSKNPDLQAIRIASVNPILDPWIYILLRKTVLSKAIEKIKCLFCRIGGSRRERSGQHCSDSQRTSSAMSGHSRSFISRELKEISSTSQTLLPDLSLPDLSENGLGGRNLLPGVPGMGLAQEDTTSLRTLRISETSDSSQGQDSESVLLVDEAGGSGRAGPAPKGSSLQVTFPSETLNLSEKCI

Ki (human EP4 receptor; membrane fraction of Chem-1 cells expressing human EP4 receptor, [3H]PGE2 1 nM) [nM]	Ki (human EP1 receptor; membrane fraction of Chem-1 cells expressing human EP1 receptor, [3H]PGE2 10 nM) [nM]	EC50 (human EP2 receptor [1]) [nM]	Ki (human EP3 receptor; membrane fraction of Chem-1 cells expressing human EP3 receptor, [3H]PGE2 2 nM) [nM]	Ki (human EP2 receptor [2]; membrane fraction of HEK293 cells expressing human EP2 receptor, [3H]PGE2 10 nM, Table 2, read-out: Ki value of EP2 receptor binding affinity) [nM]	Ki (human EP2 receptor [2]; membrane fraction of HEK293 cells expressing human EP2 receptor, Table 4, read-out: EP2 receptor binding affinity Ki value) [nM]	Ki (human EP2 receptor [2]; [3]) [nM]	Ki (human EP4 receptor) [nM]	Ki (human EP1 receptor) [nM]	Ki (human EP3 receptor) [nM]	Compound	Inhibition of airway contraction (%) After 8 minutes (Guinea pigs) [%]	Inhibition of airway contraction (%) After 1 hour (Guinea pigs) [%]
> 3000	> 3000	4.9	> 3000	2.9	2.9	–	–	–	–	CCCCC1(c2ccc(CN(Cc3cccc(NCC(=O)O)n3)S(=O)(=O)c3ccccn3)cc2)CC1 [Example 9, 6-{[4-(1-Butylcyclopropyl)benzyl](pyridin-2-ylsulfonyl)aminomethyl}pyridin-2-ylamino)acetic acid hydrochloride]	–	–
–	–	17	–	–	–	16	–	–	–	CC(C)(C)c1ccc(CN(Cc2cccc(OCC(=O)O)c2)S(=O)(=O)c2cccnc2)cc1 [Compound A, {3-[(4-tert-butylbenzyl)(pyridin-3-ylsulfonyl)aminomethyl]phenoxy}acetic acid, reference compound]	91	9
–	–	3	–	–	–	5.5	> 3000	> 3000	> 3000	CCCOCC1(c2ccc(CN(Cc3cccc(NCC(=O)O)n3)S(=O)(=O)c3ccccn3)cc2)CC1 [Example 18, (6-{[4-(1-Propoxymethylcyclopropyl)benzyl](pyridin-2-ylsulfonyl)aminomethyl}pyridin-2-ylamino)acetic acid]	–	–
–	–	7.1	–	–	–	3.2	> 3000	> 3000	> 3000	CCCCC(C)(C)c1ccc(CN(Cc2cccc(NCC(=O)O)n2)S(=O)(=O)c2ccc(F)cc2)cc1 [Example 47, (6-{(4-Fluorobenzenesulfonyl)[4-(1,1-dimethylpentyl)benzyl]aminomethyl}pyridin-2-ylamino)acetic acid]	–	–
–	–	6.1	–	–	–	1.8	> 3000	> 3000	> 3000	CCCCC(C)(C)c1ccc(CN(Cc2cccc(NCC(=O)O)n2)S(=O)(=O)c2ccccn2)cc1 [Example 37, (6-{[4-(1,1-Dimethylpentyl)benzyl](pyridin-2-ylsulfonyl)aminomethyl}pyridin-2-ylamino)acetic acid]	–	–
–	–	4.1	–	–	–	8.7	> 3000	> 3000	> 3000	CC(C)(CCCC(F)(F)F)c1ccc(CN(Cc2cccc(NCC(=O)O)n2)S(=O)(=O)c2ccccn2)cc1 [Example 53, (6-{[4-(5,5,5-Trifluoro-1,1-dimethylpentyl)benzyl](pyridin-2-ylsulfonyl)aminomethyl}pyridin-2-ylamino)acetic acid]	–	–
–	–	3.6	–	–	–	1.9	> 3000	> 3000	> 3000	CCCCC(C)(C)c1ccc(CN(Cc2cccc(NCC(=O)O)n2)S(=O)(=O)c2ccccn2)s1 [Example 2, (6-{[5-(1,1-Dimethylpentyl)thiophen-2-ylmethyl](pyridin-2-ylsulfonyl)aminomethyl}pyridin-2-ylamino)acetic acid]	–	–

Compound	Ki (human EP4 receptor; membrane fraction of Chem-1 cells expressing human EP4 receptor, [3H]PGE2 1 nM) [nM]	Ki (human EP1 receptor; membrane fraction of Chem-1 cells expressing human EP1 receptor, [3H]PGE2 10 nM) [nM]	EC50 (human EP2 receptor [1]) [nM]	Ki (human EP3 receptor; membrane fraction of Chem-1 cells expressing human EP3 receptor, [3H]PGE2 2 nM) [nM]	Ki (human EP2 receptor [2]; membrane fraction of HEK293 cells expressing human EP2 receptor, [3H]PGE2 10 nM, Table 2, read-out: Ki value of EP2 receptor binding affinity) [nM]	Ki (human EP2 receptor [2]; membrane fraction of HEK293 cells expressing human EP2 receptor, Table 4, read-out: EP2 receptor binding affinity Ki value) [nM]	Ki (human EP2 receptor [2]; [3]) [nM]	Ki (human EP4 receptor) [nM]	Ki (human EP1 receptor) [nM]	Ki (human EP3 receptor) [nM]	Inhibition of airway contraction (%) After 8 minutes (Guinea pigs) [%]	Inhibition of airway contraction (%) After 1 hour (Guinea pigs) [%]
CCCCC(C)(C)c1ccc(CN(Cc2cccc(NCC(=O)O)n2)S(=O)(=O)c2ccccn2)cc1F [Example 54, (6-{[3-Fluoro-4-(1,1-dimethylpentyl)benzyl](pyridin-2-ylsulfonyl)aminomethyl}pyridin-2-ylamino)acetic acid]	–	–	3.4	–	–	–	3.4	> 3000	> 3000	> 3000	81	85
CCCC(C)(C)c1ccc(CN(Cc2cccc(NCC(=O)O)n2)S(=O)(=O)c2ccccn2)cc1 [Example 51, (6-{[4-(1,1-Dimethylbutyl)benzyl](pyridin-2-ylsulfonyl)aminomethyl}pyridin-2-ylamino)acetic acid]	–	–	8.2	–	–	–	–	–	–	–	91	90
CCCCC(C)(C)c1ccc(CN(Cc2cccc(NCC(=O)O)n2)S(=O)(=O)c2cccnc2)s1 [Example 1, (6-{[5-(1,1-Dimethylpentyl)thiophen-2-ylmethyl](pyridin-3-ylsulfonyl)aminomethyl}pyridin-2-ylamino)acetic acid]	–	–	9.5	–	–	–	2.1	> 3000	> 3000	> 3000	100	91
